Reference: patent US6737383B1, “Herbicidal oxadiazolidines” (priority 1999, dated 2004)

Experiments:
giant foxtail = assay: Test B pre/postemergence giant foxtail; assay type: in vivo, Setaria faberii
In short: (§1)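 Response is a visual 0-to-10 score relative to untreated plants, where 0 means no effect and 10 means complete control, taken twelve to sixteen days after application. Treatments went onto soil at planting and onto foliage of 1- to 4-leaf plants, using a surfactant-containing non-phytotoxic solvent.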

morningglory = assay: Test B pre/postemergence morningglory; assay type: in vivo, Ipomoea hederacea
In short: as §1

bamyardgrass = assay: Test B flood test barnyardgrass; assay type: in vivo, Echinochloa crus-galli
In short: (§2)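 Read-out is a visual response score from 0 (no effect) to 10 (complete control), assigned by comparison with untreated controls. Treatment was applied at the 2-leaf stage, and plants stayed in the greenhouse for twelve to sixteen days before scoring.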

purple nutsedge = assay: Test B pre/postemergence purple nutsedge; assay type: in vivo, Cyperus rotundus
In short: as §1

corn = assay: Test B pre/postemergence corn; assay type: in vivo, Zea mays
In short: as §1

rice = assay: Test B flood test rice; assay type: in vivo, Oryza sativa
In short: as §2

rape = assay: Test B pre/postemergence rape; assay type: in vivo, Brassica napus
In short: as §1

velvetleaf = assay: Test B pre/postemergence velvetleaf; assay type: in vivo, Abutilon theophrasti; conditions: for Plant response rating, Velvetleaf: Postemergence
In short: as §1

pigweed = assay: Test B pre/postemergence pigweed; assay type: in vivo, Amaranthus retroflexus; conditions: for Plant response rating, Redroot pigweed: Postemergence
In short: as §1

smallflower flatsedge = assay: Test B flood test smallflower flatsedge; assay type: in vivo, Cyperus difformis
In short: as §2

duck salad = assay: Test B flood test duck salad; assay type: in vivo, Heteranthera limosa
In short: as §2

sugar beet = assay: Test B pre/postemergence sugar beet; assay type: in vivo, Beta vulgaris
In short: as §1

bedstraw = assay: Test B pre/postemergence bedstraw; assay type: in vivo, Galium aparine
In short: as §1

cocklebur = assay: Test B pre/postemergence cocklebur; assay type: in vivo, Xanthium strumarium
In short: as §1

wild oat = assay: Test B pre/postemergence wild oat; assay type: in vivo, Avena fatua; conditions: for Plant response rating, Wild oats: Postemergence
In short: as §1

soybean = assay: Test B pre/postemergence soybean; assay type: in vivo, Glycine max; conditions: for Plant response rating, Soybean: Postemergence
In short: as §1

surinam grass = assay: Test B pre/postemergence surinam grass; assay type: in vivo, Brachiaria decumbens
In short: as §1

blackgrass = assay: Test B pre/postemergence blackgrass; assay type: in vivo, Alopecurus myosuroides
In short: as §1

crabgrass = assay: Test B pre/postemergence crabgrass; assay type: in vivo, Digitaria sanguinalis
In short: as §1

wheat = assay: Test B pre/postemergence wheat; assay type: in vivo, Triticum aestivum; conditions: for Plant response rating, Wheat: Postemergence
In short: as §1

[1] = Postemergence, Rate 62 g/ha, scale of 0 to 10, 0 is no effect, 10 is complete control
[2] = Postemergence, Rate 125 g/ha, scale 0 to 10, 0 is no effect, 10 is complete control
[3] = Postemergence, Rate 500 g/ha, scale of 0 to 10 where 0 is no effect and 10 is complete control
[4] = Preemergence, Rate 62 g/ha, scale 0 to 10 (0 no effect, 10 complete control)
[5] = Preemergence, Rate 125 g/ha, scale 0 to 10, 0 is no effect, 10 is complete control
[6] = Preemergence, Rate 500 g/ha, scale of 0 to 10 where 0 is no effect and 10 is complete control
[7] = Rate 250 g/ha, Postemergence, scale of 0 to 10 where 0 is no effect and 10 is complete control
[8] = Rate 62 g/ha, flood test species, Pre-emergence, visual evaluation after twelve to sixteen days
[9] = Rate 125 g/ha, under heading Pre-emergence, flood test species, visual evaluation after twelve to sixteen days
[10] = Rate 250 g/ha, Pre-emergence (flood test species), scale 0 to 10, 0 is no effect, 10 is complete control
[11] = Rate 500 g/ha, Pre-emergence section of Table B, 0 to 10 scale (0 no effect, 10 complete control)
[12] = Rate 500 g/ha, scale of 0 to 10 where 0 is no effect and 10 is complete control
[13] = Rate 250 g/ha, scale of 0 to 10 where 0 is no effect and 10 is complete control

In the case of CC(C)N(C(=O)n1oc(=O)n(C[Si](C)(C)C)c1=O)c1ccccc1 [Compound 577], the “Giant foxtail plant response rating” value (giant foxtail; [1]) is reported as 0, the “Giant foxtail plant response rating” value (giant foxtail; [2]) is reported as 2 and the “Plant response rating, Giant foxtail” value (giant foxtail; [3]) is reported as 8. The “Giant foxtail plant response rating” value (giant foxtail; [4]) was 7, the “Giant foxtail plant response rating” value (giant foxtail; [5]) was 8 and the “Giant foxtail plant response rating (0 to 10 scale)” value (giant foxtail; Preemergence, Rate 250 g/ha) was 9. The “Giant foxtail plant response rating” value (giant foxtail; [6]) was 10, the “Plant response rating, Giant foxtail” value (giant foxtail; [7]) was 2 and the “Morningglory plant response rating” value (morningglory; [1]) was 6. The “Morningglory plant response rating” value (morningglory; [2]) was 9, the “Plant response rating, Morningglory” value (morningglory; [3]) was 10 and the “Morningglory plant response rating” value (morningglory; [4]) was 0. The “Morningglory plant response rating” value (morningglory; [5]) was 0, the “Morningglory plant response rating (0 to 10 scale)” value (morningglory; Preemergence, Rate 250 g/ha) was 8 and the “Morningglory plant response rating” value (morningglory; [6]) was 9. For the same compound, the “Plant response rating, Morningglory” value (morningglory; [7]) was 10, the “Plant response rating, Barnyardgrass (0 to 10 scale, 0 is no effect, 10 is complete control)” value (bamyardgrass; [8]) was 0 and the “Barnyardgrass plant response rating (0 to 10 scale, 0 is no effect, 10 is complete control)” value (bamyardgrass; [9]) was 0. The “Barnyardgrass plant response rating” value (bamyardgrass; [10]) was 0, the “Barnyardgrass plant response rating” value (bamyardgrass; [11]) was 0 and the “Nutsedge plant response rating” value (purple nutsedge; [1]) was 0. The “Plant response rating, Nutsedge” value (purple nutsedge; [3]) was 0, the “Nutsedge plant response rating” value (purple nutsedge; [4]) was 0 and the “Nutsedge plant response rating” value (purple nutsedge; [5]) was 0. For the same compound, the “Nutsedge plant response rating (0 to 10 scale)” value (purple nutsedge; Preemergence, Rate 250 g/ha) was 0, the “Nutsedge plant response rating” value (purple nutsedge; [6]) was 0 and the “Corn plant response rating” value (corn; [1]) was 0. The “Corn plant response rating” value (corn; [2]) was 0, the “Plant response rating, Corn” value (corn; [3]) was 2 and the “Corn plant response rating” value (corn; [4]) was 2. For the same compound, the “Corn plant response rating” value (corn; [5]) was 2, the “Corn plant response rating (0 to 10 scale)” value (corn; Preemergence, Rate 250 g/ha) was 2 and the “Corn plant response rating” value (corn; [6]) was 3. For the same compound, the “Plant response rating, Corn” value (corn; [7]) was 0, the “Plant response rating, Rice (0 to 10 scale, 0 is no effect, 10 is complete control)” value (rice; [8]) was 0 and the “Rice plant response rating (0 to 10 scale, 0 is no effect, 10 is complete control)” value (rice; [9]) was 0. For the same compound, the “Rice plant response rating” value (rice; [10]) was 0, the “Rice plant response rating” value (rice; [11]) was 0 and the “Rape plant response rating” value (rape; [1]) was 0. For the same compound, the “Rape plant response rating” value (rape; [2]) was 0, the “Plant response rating, Rape” value (rape; [3]) was 0 and the “Rape plant response rating” value (rape; [4]) was 0. For the same compound, the “Rape plant response rating” value (rape; [5]) was 0, the “Rape plant response rating (0 to 10 scale)” value (rape; Preemergence, Rate 250 g/ha) was 0 and the “Rape plant response rating” value (rape; [6]) was 0. The “Plant response rating, Rape” value (rape; [7]) was 0, the “Plant response rating, Velvetleaf” value (velvetleaf; [12]) was 0 and the “Velvetleaf plant response rating” value (velvetleaf; [4]) was 4. For the same compound, the “Velvetleaf plant response rating” value (velvetleaf; [5]) was 3, the “Velvetleaf plant response rating (0 to 10 scale)” value (velvetleaf; Preemergence, Rate 250 g/ha) was 3 and the “Velvetleaf plant response rating” value (velvetleaf; [6]) was 4. The “Plant response rating, Velvetleaf” value (velvetleaf; [13]) was 0, the “Plant response rating, Redroot pigweed” value (pigweed; [12]) was 0 and the “Redroot pigweed plant response rating” value (pigweed; [4]) was 0. For the same compound, the “Redroot pigweed plant response rating” value (pigweed; [5]) was 0, the “Redroot pigweed plant response rating (0 to 10 scale)” value (pigweed; Preemergence, Rate 250 g/ha) was 0 and the “Redroot pigweed plant response rating” value (pigweed; [6]) was 0. For the same compound, the “Plant response rating, Redroot pigweed” value (pigweed; [13]) was 0, the “Plant response rating, S. Flatsedge (0 to 10 scale, 0 is no effect, 10 is complete control)” value (smallflower flatsedge; [8]) was 0 and the “S. Flatsedge plant response rating (0 to 10 scale, 0 is no effect, 10 is complete control)” value (smallflower flatsedge; [9]) was 0. The “S. Flatsedge plant response rating” value (smallflower flatsedge; [10]) was 0, the “S. Flatsedge plant response rating” value (smallflower flatsedge; [11]) was 0 and the “Plant response rating, Ducksalad (0 to 10 scale, 0 is no effect, 10 is complete control)” value (duck salad; [8]) was 0. For the same compound, the “Ducksalad plant response rating (0 to 10 scale, 0 is no effect, 10 is complete control)” value (duck salad; [9]) was 0, the “Ducksalad plant response rating” value (duck salad; [10]) was 0 and the “Ducksalad plant response rating” value (duck salad; [11]) was 0. The “Sugarbeets plant response rating” value (sugar beet; [4]) was 0, the “Sugarbeets plant response rating” value (sugar beet; [5]) was 0 and the “Sugarbeets plant response rating (0 to 10 scale)” value (sugar beet; Preemergence, Rate 250 g/ha) was 0. The “Sugarbeets plant response rating” value (sugar beet; [6]) was 0, the “Plant response rating, Sugarbeets” value (sugar beet; [7]) was 0 and the “Bedstraw plant response rating” value (bedstraw; [2]) was 4. For the same compound, the “Bedstraw plant response rating” value (bedstraw; [4]) was 0, the “Bedstraw plant response rating” value (bedstraw; [5]) was 0 and the “Bedstraw plant response rating (0 to 10 scale)” value (bedstraw; Preemergence, Rate 250 g/ha) was 0. The “Bedstraw plant response rating” value (bedstraw; [6]) was 0, the “Cocklebur plant response rating” value (cocklebur; [1]) was 0 and the “Cocklebur plant response rating” value (cocklebur; [2]) was 0. The “Plant response rating, Cocklebur” value (cocklebur; [3]) was 2, the “Cocklebur plant response rating” value (cocklebur; [4]) was 0 and the “Cocklebur plant response rating” value (cocklebur; [5]) was 0. The “Cocklebur plant response rating (0 to 10 scale)” value (cocklebur; Preemergence, Rate 250 g/ha) was 0, the “Cocklebur plant response rating” value (cocklebur; [6]) was 0 and the “Plant response rating, Cocklebur” value (cocklebur; [7]) was 0. The “Plant response rating, Wild oats” value (wild oat; [12]) was 0, the “Wild oats plant response rating” value (wild oat; [4]) was 0 and the “Wild oats plant response rating” value (wild oat; [5]) was 0. The “Wild oats plant response rating (0 to 10 scale)” value (wild oat; Preemergence, Rate 250 g/ha) was 0, the “Wild oats plant response rating” value (wild oat; [6]) was 0 and the “Plant response rating, Wild oats” value (wild oat; [13]) was 0. For the same compound, the “Plant response rating, Soybean” value (soybean; [12]) was 5, the “Soybean plant response rating” value (soybean; [4]) was 0 and the “Soybean plant response rating” value (soybean; [5]) was 0. For the same compound, the “Soybean plant response rating (0 to 10 scale)” value (soybean; Preemergence, Rate 250 g/ha) was 0, the “Soybean plant response rating” value (soybean; [6]) was 0 and the “Plant response rating, Soybean” value (soybean; [13]) was 3. The “B. signalgrass plant response rating” value (surinam grass; [1]) was 0, the “B. signalgrass plant response rating” value (surinam grass; [2]) was 0 and the “Plant response rating, B. signalgrass” value (surinam grass; [3]) was 3. The “B. signalgrass plant response rating” value (surinam grass; [4]) was 0, the “B. signalgrass plant response rating” value (surinam grass; [5]) was 3 and the “B. signalgrass plant response rating (0 to 10 scale, 0 is no effect, 10 is complete control)” value (surinam grass; Preemergence, Rate 250 g/ha) was 4. The “B. signalgrass plant response rating” value (surinam grass; [6]) was 7, the “Plant response rating, B. signalgrass” value (surinam grass; [7]) was 0 and the “Blackgrass plant response rating” value (blackgrass; [1]) was 0. The “Blackgrass plant response rating” value (blackgrass; [2]) was 0, the “Plant response rating, Blackgrass” value (blackgrass; [3]) was 0 and the “Blackgrass plant response rating” value (blackgrass; [4]) was 0. The “Blackgrass plant response rating” value (blackgrass; [5]) was 0, the “Blackgrass plant response rating (0 to 10 scale)” value (blackgrass; Preemergence, Rate 250 g/ha) was 3 and the “Blackgrass plant response rating” value (blackgrass; [6]) was 6. For the same compound, the “Plant response rating, Blackgrass” value (blackgrass; [7]) was 0, the “Crabgrass plant response rating” value (crabgrass; [1]) was 0 and the “Crabgrass plant response rating” value (crabgrass; [2]) was 0. For the same compound, the “Plant response rating, Crabgrass” value (crabgrass; [3]) was 3, the “Crabgrass plant response rating” value (crabgrass; [4]) was 7 and the “Crabgrass plant response rating” value (crabgrass; [5]) was 9. For the same compound, the “Crabgrass plant response rating (0 to 10 scale)” value (crabgrass; Preemergence, Rate 250 g/ha) was 9, the “Crabgrass plant response rating” value (crabgrass; [6]) was 10 and the “Plant response rating, Crabgrass” value (crabgrass; [7]) was 3. The “Plant response rating, Wheat” value (wheat; [12]) was 0, the “Wheat plant response rating” value (wheat; [4]) was 0 and the “Wheat plant response rating” value (wheat; [5]) was 0. The “Wheat plant response rating (0 to 10 scale)” value (wheat; Preemergence, Rate 250 g/ha) was 0, the “Wheat plant response rating” value (wheat; [6]) was 0 and the “Plant response rating, Wheat” value (wheat; [13]) was 0.
